The subject of data set [1] is KIT. Conditions: in vitro, cited from earlier work.
A short description of data set [2]: Solubility of Compound I in pH 6 phosphate buffer. Conditions: aqueous buffer; pH 6 phosphate buffer at 25° C. It counts as physicochemical. As for the experimental part: Compound I readily crystallizes. Its solubility is about 10 μg/mL in pH 6 phosphate buffer at 25° C. When the compound was synthesized, very fine particles precipitated out of solution during the last step of synthesis. Subsequent isolation of these fine particles by filtration was slow, and a hard cake resulted after filtration. There is a need for a salt of Compound I which has physical stability and desirable physical properties.

Data set [3] can be described thus: Dynamic moisture sorption gravimetry (DMSG) of salts of Compound I. It counts as physicochemical. As for the experimental part:
Dynamic Moisture Sorption Gravimetry (DMSG).
DMSG isotherm was collected on a temperature controlled atmospheric microbalance. Approximately 10 mg samples were placed in the sample pan of the balance. The humidity was sequentially varied from room relative humidity (RH) to 0% RH and was then increased to 90% RH followed by a decrease of RH to 0% again in 3% RH steps. The mass was then measured every two minutes. The RH was stepped to the next target value when change of the sample mass was less than 0.5 μg in 10 min. The Visual Basic program dmsgscn2.exe was used to control the data collection and export the information to an Excel spreadsheet.

On the set-up of data set [4]: species or system rodent. Conditions: in vivo. The procedure:
Based on preclinical work in rodent models, the therapeutic range of Compound I for target inhibition was considered to be 50-100 ng/ml for 12 h of a 24-h dosing period. […] In one animal, the plasma concentration of Compound I phosphate was outside the range of the other samples (0.3 ng/ml).

In data set [5] the test system is canine MCTs. Conditions: dog, in vivo; cited from earlier work.
The nature of data set [6]: Relative physical stability of Compound I phosphate polymorphs standing in solvent. The data set is classed as physicochemical. Conditions: among non-solvated polymorphs, in contact with solvent. The procedure:
Such concentrated solutions were prepared by dissolving Compound I free base in about 1 M phosphoric acid. For example, about 70 mg of Compound I free base could be dissolved in 1 mL of 1 M phosphoric acid. However, the amount of Compound I free base and phosphoric acid used depended on the desired concentration and batch size of the solution. In the example in which the precipitate was vacuum filtered immediately after precipitation, about 1 mL of the desired solution was then dripped into about 10 mL of ten anti-solvents to precipitate the salt crystals out. These solvents were water plus acetonitrile (ANC), ethanol, methanol, acetone, acetonitrile, THF, ethyl acetate, hexane, methylene chloride (CH2Cl2), and isopropyl alcohol (IPA). In the example in which the precipitate was vacuum filtered after standing overnight or for three days, the additional solvents of methyl ethyl ketone (MEK) and dioxane were used. Some organic solvents, e.g., ethyl acetate, hexane, CH2C12, are not miscible with water and two layers of solvents were observed. […] In those cases, about 1 mL of methanol was added as a bridging solvent, to increase the miscibility between the two layers. Methanol appeared to work well to increase the miscibility because colorless organic layer became yellow as soon as methanol was added. […] The powder was then analyzed. […]

The nature of data set [7]: Estimation of solubility in various solvents by step-wise solvent addition. It counts as physicochemical. Conditions: 23 °C, organic solvent or mixture, thermodynamic from solid, 23° C., read-out: Estimated solubility. The procedure: Samples of 1-2 mg of Compound I phosphate (lot 35282-CS-51) were transferred to 10 mL glass vials (tared) and were weighed (accurate to 0.1 mg). Solvents were added to the vials (one solvent to each vial) in a step-wise fashion, with 0.5 mL of solvent added at each step. Solvents used were buffer (pH=2), buffer (pH=5), water, methanol, tetrahydrofuran (THF), acetonitrile, and acetone. After each addition, the vial was capped and shaken. The dissolution of solid was visually observed. If no obvious dissolution was observed, more solvent was added immediately. If dissolution was apparent, the vial was left on the bench for at least 30 minutes before the next addition of solvent. This step was repeated until no crystals were visible against a black and a white background. The solubility was then bracketed by dividing the weight of the compound by the final volume and the volume before the last addition. If a solid remained after the addition of 10 mL of solvent, the solubility was expressed as less than the weight divided by the final volume. If the solid was completely dissolved after the first addition of solvent, the solubility was expressed as greater than the weight divided by the solvent volume. All experiments were conducted at room temperature.

Converted amounts (≈) assume the structure as drawn.

Usually solubility stands for the concentration that dissolves in the medium under given conditions. Regarding `Cc1[nH]c(/C=C2\C(=O)Nc3ccc(F)cc32)c(C)c1C(=O)NCCN1CCCC1` [Compound I, 5-[5-fluoro-2-oxo-1,2-dihydro-indol-(3Z)-ylidenemethyl]-2,4-dimethyl-1H-pyrrole-3-carboxylic acid (2-pyrrolidin-1-yl-ethyl)-amide], in data set [1] (cellular assays), the “potency of blocking phosphorylation of wild-type vs ITD mutant KIT” value is “comparable potency”. The “effect on malignant mast cell lines expressing various forms of mutant KIT” value in data set [1] was “inhibit KIT phosphorylation, arrest cell proliferation, and induce cell cycle arrest and apoptosis”. This compound gave a solubility in data set [2] of approximately 0.01 mg/mL (≈ 25.2 µM). Also, in data set [3], the “% water at 80% RH” value is approximately 1%. For the same compound, the “therapeutic range for target inhibition (plasma)” value in data set [4] lay in the range of 50 to 100 ng/mL. Besides, in data set [5], the “canine MCTs with durable objective responses (partial and complete responses)” value is 11 of 22 canine MCTs.
Regarding `Cc1[nH]c(/C=C2\C(=O)Nc3ccc(F)cc32)c(C)c1C(=O)NCCN1CCCC1` [Form I], in data set [6], the “relative stability of the solid phase” value is given as “most stable solid phase”.
In the case of `Cc1[nH]c(/C=C2\C(=O)Nc3ccc(F)cc32)c(C)c1C(=O)NCCN1CCCC1.O=C(O)CC(O)(CC(=O)O)C(=O)O` [Compound I citrate], the “% water at 80% RH” value in data set [3] is recorded as approximately 3.8%. In addition, the “water at 80 percent humidity” value in data set [3] (80 percent relative humidity) is listed as “about 3.8%”.
As for `Cc1[nH]c(/C=C2\C(=O)Nc3ccc(F)cc32)c(C)c1C(=O)NCCN1CCCC1` [Compound I free base (polymorph Form A), 5-[5-fluoro-2-oxo-1,2-dihydro-indol-(3Z)-ylidenemethyl]-2,4-dimethyl-1H-pyrrole-3-carboxylic acid (2-pyrrolidin-1-yl-ethyl)-amide], the solubility in data set [7] (acetone, Acetone) was less than 0.16 mg/mL; in data set [7] (acetonitrile, Acetonitrile), less than 0.08 mg/mL; in data set [7] (methanol, methanol), 0.21 to 0.31 mg/mL (≈ 530 to 782 µM); in data set [7] (tetrahydrofuran (THF), THF) it was 0.32 to 0.4 mg/mL (≈ 807 to 1010 µM).

(Values after patent US8987320B2, “Solid salt forms of a pyrrole substituted 2-indolinone” (Zoetis LLC, priority 2005, dated 2015).)
